ChEMBL document CHEMBL3867490, “Chalcone-benzoxaborole hybrids as novel anticancer agents” (Bioorg Med Chem Lett, 2016)

Columns and labels:
[1] = Cytotoxicity against human SKOV3 cells assessed as reduction in cell viability after 48 hrs by MTT assay; assay type: functional, cell-based; conditions: SK-OV-3, 48 h
[2] = Cytotoxicity against human MCF10A cells assessed as reduction in cell viability after 48 hrs by MTT assay; assay type: toxicity, cell-based, MCF-10A
[3] = Cytotoxicity against human WI38 cells assessed as reduction in cell viability after 48 hrs by MTT assay; assay type: toxicity, cell-based, WI-38
[4] = Cytotoxicity against human MDA-MB-231 cells assessed as reduction in cell viability after 48 hrs by MTT assay; assay type: functional, cell-based; conditions: MDA-MB-231, 48 h
[5] = Selectivity ratio of IC50 for human WI38 cells to IC50 for human MDA-MB-231 cells; assay type: ADME, cell-based, WI-38; conditions: WI38 cells versus MDA-MB-231 cells, read-out: Ratio IC50
[6] = Cytotoxicity against human HCT116 cells assessed as reduction in cell viability after 48 hrs by MTT assay; assay type: functional, cell-based; conditions: HCT-116, 48 h
[7] = Selectivity ratio of IC50 for human MCF10A cells to IC50 for human SKOV3 cells; assay type: ADME, cell-based, MCF-10A; conditions: MCF10A cells versus SKOV3 cells, read-out: Ratio IC50
[8] = Selectivity ratio of IC50 for human WI38 cells to IC50 for human SKOV3 cells; assay type: ADME, cell-based, SK-OV-3; conditions: WI38 cells versus SKOV3 cells, read-out: Ratio IC50

O=C(/C=C/c1ccc2c(c1)B(O)OC2)c1ccccc1
IC50 [1]: 3.4 µM | IC50 at 48 h [2]: 15.9 µM | IC50 at 48 h [3]: 19.1 µM | IC50 [4]: 2.3 µM | selectivity ratio [5]: 8 | IC50 [6]: 6.1 µM

Cc1ccc(C(=O)/C=C/c2ccc3c(c2)B(O)OC3)cc1
IC50 [1]: 3.7 µM | IC50 at 48 h [2]: 8.3 µM | IC50 at 48 h [3]: 22.2 µM | IC50 [4]: 6.5 µM | IC50 [6]: 10.5 µM

O=C(/C=C/c1ccc2c(c1)B(O)OC2)c1ccc(-c2ccccc2)cc1
IC50 [1]: 4.9 µM | IC50 at 48 h [2]: 20.7 µM | IC50 at 48 h [3]: 18.3 µM | IC50 [4]: 6.4 µM | IC50 [6]: 9.5 µM

O=C(/C=C/c1ccc2c(c1)B(O)OC2)c1cccc2ccccc12
IC50 [1]: 2.7 µM | IC50 at 48 h [2]: 13.4 µM | IC50 at 48 h [3]: 18.8 µM | IC50 [4]: 3.6 µM | IC50 [6]: 5 µM

O=C(/C=C/c1ccc2c(c1)B(O)OC2)c1ccco1
IC50 [1]: 20.7 µM | IC50 at 48 h [2]: 7.4 µM | IC50 at 48 h [3]: 59 µM | IC50 [4]: 7.3 µM | IC50 [6]: 24.1 µM

O=C(/C=C/c1ccc2c(c1)B(O)OC2)c1cccs1
IC50 [1]: 10.4 µM | IC50 at 48 h [2]: 13.8 µM | IC50 at 48 h [3]: 26 µM | IC50 [4]: 4.6 µM | IC50 [6]: 14.2 µM

Cn1cccc1C(=O)/C=C/c1ccc2c(c1)B(O)OC2
IC50 [1]: 93.6 µM | IC50 at 48 h [2]: > 100 µM | IC50 at 48 h [3]: > 100 µM | IC50 [4]: > 100 µM | IC50 [6]: > 100 µM

O=C(/C=C/c1ccc2c(c1)B(O)OC2)c1ccc([N+](=O)[O-])cc1
IC50 [1]: 7.9 µM | IC50 at 48 h [2]: 17.5 µM | IC50 at 48 h [3]: 39.3 µM | IC50 [4]: 11.2 µM | IC50 [6]: 9.1 µM

O=C(/C=C/c1ccc2c(c1)B(O)OC2)c1ccc(C(F)(F)F)cc1
IC50 [1]: 3.7 µM | IC50 at 48 h [2]: 22.3 µM | IC50 at 48 h [3]: 22.6 µM | IC50 [4]: 9.2 µM | IC50 [6]: 6.3 µM

CCOC(=O)c1ccc(C(=O)/C=C/c2ccc3c(c2)B(O)OC3)cc1
IC50 [1]: 7.1 µM | IC50 at 48 h [2]: 12.9 µM | IC50 at 48 h [3]: 47.2 µM | IC50 [4]: 13 µM | IC50 [6]: 7.6 µM

O=C(/C=C/c1ccc2c(c1)B(O)OC2)c1ccc(F)cc1
IC50 [1]: 1.4 µM | IC50 at 48 h [2]: 11.8 µM | IC50 at 48 h [3]: 7.6 µM | IC50 [4]: 1.6 µM | IC50 [6]: 2.8 µM

O=C(/C=C/c1ccc2c(c1)B(O)OC2)c1ccc(Cl)cc1
IC50 [1]: 3.7 µM | IC50 at 48 h [2]: 12.1 µM | IC50 at 48 h [3]: 24.7 µM | IC50 [4]: 7.9 µM | IC50 [6]: 9.3 µM

O=C(/C=C/c1ccc2c(c1)B(O)OC2)c1ccc(Br)cc1
IC50 [1]: 4.5 µM | IC50 at 48 h [2]: 27.8 µM | IC50 at 48 h [3]: 36.7 µM | IC50 [4]: 9.5 µM | IC50 [6]: 9.9 µM

O=C(/C=C/c1ccc2c(c1)B(O)OC2)c1ccc(I)cc1
IC50 [1]: 4.2 µM | selectivity ratio [7]: > 25 | IC50 at 48 h [2]: > 100 µM | IC50 at 48 h [3]: > 100 µM | IC50 [4]: 14.9 µM | selectivity ratio [8]: > 25 | IC50 [6]: 11.6 µM

CCc1ccc(C(=O)/C=C/c2ccc3c(c2)B(O)OC3)cc1
IC50 [1]: 4.4 µM | IC50 at 48 h [2]: 8.8 µM | IC50 at 48 h [3]: 20.6 µM | IC50 [4]: 9.8 µM | IC50 [6]: 10.9 µM

CSc1ccc(C(=O)/C=C/c2ccc3c(c2)B(O)OC3)cc1
IC50 [1]: 4.1 µM | IC50 at 48 h [2]: 7.4 µM | IC50 at 48 h [3]: 54.3 µM | IC50 [4]: 9.8 µM | IC50 [6]: 10.3 µM

O=C(/C=C/c1ccc2c(c1)B(O)OC2)c1ccc(OCc2ccccc2)cc1
IC50 [1]: 6 µM | IC50 at 48 h [2]: 23.3 µM | IC50 at 48 h [3]: > 100 µM | IC50 [4]: 5.3 µM | IC50 [6]: 12.1 µM

O=C(/C=C/c1ccc2c(c1)B(O)OC2)c1ccc(O)cc1
IC50 [1]: 13 µM | IC50 at 48 h [2]: 24.8 µM | IC50 at 48 h [3]: > 100 µM | IC50 [4]: 25.6 µM | IC50 [6]: 24.1 µM

Nc1ccc(C(=O)/C=C/c2ccc3c(c2)B(O)OC3)cc1
IC50 [1]: 20.2 µM | IC50 at 48 h [2]: 19.9 µM | IC50 at 48 h [3]: 25.4 µM | IC50 [4]: 25.8 µM | IC50 [6]: 26.1 µM

O=C(/C=C/c1ccc2c(c1)B(O)OC2)c1ccccc1F
IC50 [1]: 3.7 µM | IC50 at 48 h [2]: 25.4 µM | IC50 at 48 h [3]: 23.6 µM | IC50 [4]: 2.2 µM | IC50 [6]: 4.2 µM

O=C(/C=C/c1ccc2c(c1)B(O)OC2)c1cccc(F)c1
IC50 [1]: 4.8 µM | IC50 at 48 h [2]: 15.8 µM | IC50 at 48 h [3]: 26.7 µM | IC50 [4]: 3 µM | IC50 [6]: 6.7 µM

Cc1cccc(C(=O)/C=C/c2ccc3c(c2)B(O)OC3)c1
IC50 [1]: 2.9 µM | IC50 at 48 h [2]: 15.9 µM | IC50 at 48 h [3]: 16.7 µM | IC50 [4]: 4.5 µM | IC50 [6]: 6.7 µM

Cc1ccc(C(=O)/C=C/c2ccc3c(c2)B(O)OC3)cc1C
IC50 [1]: 1.9 µM | IC50 at 48 h [2]: 4.7 µM | IC50 at 48 h [3]: 22 µM | IC50 [4]: 5.3 µM | IC50 [6]: 6.1 µM

O=C(/C=C/c1ccc2c(c1)B(O)OC2)c1ccc(Cl)c(Cl)c1
IC50 [1]: 1.8 µM | IC50 at 48 h [2]: 14.9 µM | IC50 at 48 h [3]: 12.5 µM | IC50 [4]: 3.4 µM | IC50 [6]: 3.2 µM

O=C(/C=C/c1ccc2c(c1)B(O)OC2)c1ccc(O)c(O)c1
IC50 [1]: > 100 µM | IC50 at 48 h [2]: > 100 µM | IC50 at 48 h [3]: > 100 µM | IC50 [4]: 67.6 µM | IC50 [6]: > 100 µM

COc1ccccc1C(=O)/C=C/c1ccc2c(c1)B(O)OC2
IC50 [1]: 2.6 µM | IC50 at 48 h [2]: 9.1 µM | IC50 at 48 h [3]: 21.7 µM | IC50 [4]: 3.1 µM | IC50 [6]: 5 µM

COc1cccc(C(=O)/C=C/c2ccc3c(c2)B(O)OC3)c1
IC50 [1]: 2.6 µM | IC50 at 48 h [2]: 7.4 µM | IC50 at 48 h [3]: 14.6 µM | IC50 [4]: 2.1 µM | IC50 [6]: 5 µM

COCOc1ccccc1C(=O)/C=C/c1ccc2c(c1)B(O)OC2
IC50 [1]: 6.5 µM | IC50 at 48 h [2]: 11.7 µM | IC50 at 48 h [3]: 27 µM | IC50 [4]: 10.2 µM | IC50 [6]: 10.2 µM

COCOc1cccc(C(=O)/C=C/c2ccc3c(c2)B(O)OC3)c1
IC50 [1]: 11.7 µM | IC50 at 48 h [2]: 48.1 µM | IC50 at 48 h [3]: 33.2 µM | IC50 [4]: 4.5 µM | IC50 [6]: 13.3 µM

Nc1cccc(C(=O)/C=C/c2ccc3c(c2)B(O)OC3)c1
IC50 [1]: 7.4 µM | IC50 at 48 h [2]: 19.6 µM | IC50 at 48 h [3]: 25.3 µM | IC50 [4]: 3.2 µM | IC50 [6]: 4.5 µM

O=C(/C=C/c1ccc2c(c1)B(O)OC2)c1ccccc1O
IC50 [1]: 48.8 µM | IC50 at 48 h [2]: 53.7 µM | IC50 at 48 h [3]: > 100 µM | IC50 [4]: 16.9 µM | IC50 [6]: 77.9 µM

O=C(/C=C/c1ccc2c(c1)B(O)OC2)c1cccc(O)c1
IC50 [1]: 3.8 µM | IC50 at 48 h [2]: 25.3 µM | IC50 at 48 h [3]: 26.4 µM | IC50 [4]: 2.7 µM | IC50 [6]: 6.5 µM

COc1ccc(C(=O)/C=C/c2ccc3c(c2)B(O)OC3)cc1OC
IC50 [1]: 4.8 µM | IC50 at 48 h [2]: 13.5 µM | IC50 at 48 h [3]: 33.5 µM | IC50 [4]: 13.2 µM | IC50 [6]: 12.2 µM

COc1ccc(C(=O)/C=C/c2ccc3c(c2)B(O)OC3)c(OC)c1
IC50 [1]: 6.1 µM | IC50 at 48 h [2]: 12.2 µM | IC50 at 48 h [3]: 86.3 µM | IC50 [4]: 11.2 µM | IC50 [6]: 16.2 µM

COc1cc(C(=O)/C=C/c2ccc3c(c2)B(O)OC3)cc(OC)c1OC
IC50 [1]: 5.7 µM | IC50 at 48 h [2]: 48.5 µM | IC50 at 48 h [3]: 18.5 µM | IC50 [4]: 10.6 µM | IC50 [6]: 7.9 µM

O=C(/C=C/c1ccc2c(c1)B(O)OC2)c1ccc2c(c1)OCCO2
IC50 [1]: 7.3 µM | IC50 at 48 h [2]: 11.7 µM | IC50 at 48 h [3]: 30.2 µM | IC50 [4]: 7.9 µM | IC50 [6]: 10.3 µM

COc1cc(C(=O)/C=C/c2ccc3c(c2)B(O)OC3)ccc1[N+](=O)[O-]
IC50 [1]: 1.7 µM | IC50 at 48 h [2]: 3.6 µM | IC50 at 48 h [3]: 26 µM | IC50 [4]: 11.4 µM | IC50 [6]: 4.1 µM

COc1cc(C(=O)/C=C/c2ccc3c(c2)B(O)OC3)ccc1N
IC50 [1]: 1.7 µM | IC50 at 48 h [2]: 17.6 µM | IC50 at 48 h [3]: > 100 µM | IC50 [4]: 24.3 µM | IC50 [6]: 27.9 µM

O=C(O)c1ccc(C(=O)/C=C/c2ccc3c(c2)B(O)OC3)cc1
IC50 [1]: > 100 µM | IC50 at 48 h [2]: > 100 µM | IC50 at 48 h [3]: > 100 µM | IC50 [4]: > 100 µM | IC50 [6]: > 100 µM

O=C(/C=C/c1ccc2c(c1)B(O)OC2)c1cccnc1
IC50 [1]: 18.5 µM | IC50 at 48 h [2]: 34.4 µM | IC50 at 48 h [3]: 76.2 µM | IC50 [4]: 11.4 µM | IC50 [6]: 20.5 µM

COc1cccc2c1C(=O)c1c(O)c3c(c(O)c1C2=O)C[C@@](O)(C(=O)CO)C[C@@H]3O[C@H]1C[C@H](N)[C@H](O)[C@H](C)O1 [DOXORUBICIN]
IC50 [1]: 0.42 µM | IC50 at 48 h [2]: 0.06 µM | IC50 at 48 h [3]: 9 µM | IC50 [6]: 0.31 µM
